{
  "source": "patent US20260217701A1",
  "about": "“SELECTIVE BET INHIBITORS AND USES THEREOF” (Tay Therapeutics Limited, priority 2022, published 2026)",
  "system": "imiquimod-induced psoriasis",
  "assay": "Imiquimod-induced psoriasis model",
  "format": "in vivo, mice",
  "conditions": "for Body Weight D1: Day 1 (before treatment start on Day 8); for Body Weight D1 / Body Weight D3 / Body Weight D5 / Body Weight D7 / Body Weight D8 / Body Weight D9 / Body Weight D10 / Body Weight D11 / Body Weight D12 / Body Weight D13 / Body Weight D14 / Body Weight D15 / MBWC D1-D8 / MBWC D8-D15 / PASI Scores: individual animals; for Body Weight D3: Day 3 (before treatment start on Day 8); for Body Weight D5: Day 5 (before treatment start on Day 8); for Body Weight D7: Day 7 (before treatment start on Day 8); for Body Weight D8: Day 8 (first day of treatment); for Body Weight D9: Day 9; for Body Weight D10: Day 10; for Body Weight D11: Day 11; for Body Weight D12: Day 12; for Body Weight D13: Day 13; for Body Weight D14: Day 14; for Body Weight D15: Day 15; for MBWC D1-D8: body weight change Day 1 to Day 8 (before treatment); for MBWC D8-D15: body weight change Day 8 to Day 15 (treatment period); for PASI Scores: IMI + Compound B 1 mg/kg",
  "summary_of_the_method": "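Mice given topical imiquimod (5% cream) daily on depilated backs Days 1–14; Compound A in 5% DMSO/40% PEG-400/55% saline from Day 8, clobetasol topical as reference. Daily PASI (erythema, induration, peeling, each 0–4, summed) Days 8–15; spleen weight, open-field behaviour, serum IL-1B, IL-6, IL-17, TNF-α, IL-22, IL-23 at Day 15.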",
  "key": {"[1]": {"conditions": "IMI + 1 mg/kg, 1 mg/kg, in g (unit assumed)"}, "[2]": {"conditions": "IMI + 3 mg/kg, 3 mg/kg, in g (unit assumed)"}, "[3]": {"conditions": "IMI + 10 mg/kg, 10 mg/kg, in g (unit assumed)"}},
  "note": "“And” between values parts separate entries of the source, which are not always exact repeats. Equal values may be shown once.",
  "data": [
    {"smiles": "COCCn1cc(-c2ccccc2)c(-c2cn(C)c(=O)c3[nH]c(-c4cnn(C(F)(F)F)c4)cc23)cc1=O", "note": "[Compound B, 4-(1-(2-methoxyethyl)-2-oxo-5-phenyl-1,2-dihydropyridin-4-yl)-6-methyl-2-(1-(trifluoromethyl)-1H-pyrazol-4-yl)-1,6-dihydro-7H-pyrrolo[2,3-c]pyridin-7-one]", "values": [
      {"measurement": "symptoms by day 15 (representative images)", "setting": "10 mg/kg (printed 10 mg/ml)", "value": "nearly entirely symptom free"},
      {"measurement": "mean PASI score on day 15, dose dependence", "setting": "1, 3, 10 mg/kg, 10 mg/kg most effective", "value": "dose-dependent decrease in PASI scores"},
      {"measurement": "efficacy on the treatment of psoriasis", "setting": "2 lowest doses of 1.0 and 3.0 mg/kg bw", "value": "moderate efficacy"},
      {"measurement": "Body Weight D1", "setting": "IMI + 1 mg/kg, 1 mg/kg", "value": "17.85 and 16.71 and 18.14 (2×) and 17.67 and 18.64 and 18.37 and 17.36"},
      {"measurement": "Body Weight D3", "setting": "[1]", "value": "16.05 and 15.75 and 16.34 and 16.73 and 17.52 and 16.25 and 15.31 and 17.36"},
      {"measurement": "Body Weight D5", "setting": "[1]", "value": "15.71 and 15.27 and 17.54 and 16.77 and 17.97 and 16.83 and 15.98 and 16.57"},
      {"measurement": "Body Weight D7", "setting": "[1]", "value": "16.02 and 15.76 and 17.96 and 17.02 and 17.69 and 17.48 and 16.75 and 17.68"},
      {"measurement": "Body Weight D8", "setting": "[1]", "value": "15.83 and 15.34 and 17.54 and 16.58 and 17.61 and 16.23 and 16.35 and 17.45"},
      {"measurement": "Body Weight D9", "setting": "[1]", "value": "15.70 and 15.29 and 17.68 and 16.64 and 17.26 and 15.94 and 16.69 and 17.21"},
      {"measurement": "Body Weight D10", "setting": "[1]", "value": "15.94 and 15.03 and 17.60 and 16.38 and 17.13 and 16.08 and 15.92 and 17.66"},
      {"measurement": "Body Weight D11", "setting": "[1]", "value": "16.10 and 14.61 and 17.64 and 16.08 and 17.41 and 16.29 and 16.64 and 17.72"},
      {"measurement": "Body Weight D12", "setting": "[1]", "value": "16.03 and 14.93 and 17.80 and 16.29 and 17.39 and 16.49 and 16.17 and 17.53"},
      {"measurement": "Body Weight D13", "setting": "IMI + 1 mg/kg, 1 mg/kg", "value": "16.53 and 14.84 and 18.05 and 16.45 (2×) and 17.04 (2×) and 16.34"},
      {"measurement": "Body Weight D14", "setting": "[1]", "value": "16.38 and 14.75 and 18.20 and 16.97 and 17.80 and 16.16 and 16.37 and 17.46"},
      {"measurement": "Body Weight D15", "setting": "[1]", "value": "16.34 and 14.67 and 18.01 and 16.62 and 17.29 and 16.44 and 16.12 and 17.36"},
      {"measurement": "MBWC D1-D8", "setting": "IMI + 1 mg/kg, 1 mg/kg", "value": "−2.02 and −1.37 and −0.60 and −1.09 and −1.03 and −2.14 and −1.01 and −0.69"},
      {"measurement": "MBWC D8-D15", "setting": "IMI + 1 mg/kg, 1 mg/kg", "value": "0.51 and −0.67 and 0.47 and 0.04 and −0.32 and 0.21 and −0.23 and −0.09"},
      {"measurement": "Body Weight D1", "setting": "[2]", "value": "16.04 and 18.93 and 17.71 and 17.81 and 16.63 and 17.34 and 17.52 and 18.08"},
      {"measurement": "Body Weight D3", "setting": "[2]", "value": "13.11 and 16.65 and 15.84 and 16.79 and 15.99 and 16.64 and 14.93 and 16.90"},
      {"measurement": "Body Weight D5", "setting": "[2]", "value": "14.01 and 16.29 and 15.26 and 17.65 and 16.66 and 17.47 and 16.35 and 16.80"},
      {"measurement": "Body Weight D7", "setting": "[2]", "value": "14.25 and 16.26 and 15.31 and 17.34 and 16.40 and 17.79 and 16.44 and 16.80"},
      {"measurement": "Body Weight D8", "setting": "IMI + 3 mg/kg, 3 mg/kg", "value": "13.57 and 15.67 and 15.44 and 17.59 and 16.51 (2×) and 17.07 and 16.13"},
      {"measurement": "Body Weight D9", "setting": "[2]", "value": "13.93 and 15.56 and 15.22 and 17.78 and 16.23 and 17.14 and 15.89 and 16.28"},
      {"measurement": "Body Weight D10", "setting": "IMI + 3 mg/kg, 3 mg/kg", "value": "14.23 and 15.76 (2×) and 17.87 and 16.28 and 17.32 and 15.99 and 16.22"},
      {"measurement": "Body Weight D11", "setting": "[2]", "value": "13.97 and 16.26 and 15.22 and 17.70 and 16.63 and 16.90 and 16.81 and 17.13"},
      {"measurement": "Body Weight D12", "setting": "[2]", "value": "14.44 and 16.57 and 15.46 and 17.60 and 17.05 and 16.97 and 16.65 and 17.68"},
      {"measurement": "Body Weight D13", "setting": "[2]", "value": "13.94 and 16.60 and 15.54 and 17.74 and 16.71 and 17.05 and 16.35 and 17.58"},
      {"measurement": "Body Weight D14", "setting": "[2]", "value": "13.70 and 16.12 and 15.70 and 17.96 and 17.04 and 17.47 and 16.08 and 17.19"},
      {"measurement": "Body Weight D15", "setting": "IMI + 3 mg/kg, 3 mg/kg", "value": "13.78 and 16.88 and 15.93 and 18.05 and 17.29 (2×) and 17.08 and 15.94"},
      {"measurement": "MBWC D1-D8", "setting": "IMI + 3 mg/kg, 3 mg/kg", "value": "−2.47 and −3.26 and −2.27 and −0.22 and −0.12 and −0.27 and −1.39 and −1.57"},
      {"measurement": "MBWC D8-D15", "setting": "IMI + 3 mg/kg, 3 mg/kg", "value": "0.21 and 1.21 and 0.49 and 0.46 and 0.78 (2×) and 0.01 and −0.19"},
      {"measurement": "Body Weight D1", "setting": "[3]", "value": "18.66 and 16.97 and 17.99 and 16.59 and 14.70 and 18.45 and 16.88 and 17.79"},
      {"measurement": "Body Weight D3", "setting": "IMI + 10 mg/kg, 10 mg/kg", "value": "16.89 and 15.12 (2×) and 16.64 and 15.35 and 12.66 and 15.18 and 15.47"},
      {"measurement": "Body Weight D5", "setting": "[3]", "value": "16.85 and 16.05 and 17.14 and 16.55 and 13.95 and 16.19 and 15.85 and 16.46"},
      {"measurement": "Body Weight D7", "setting": "IMI + 10 mg/kg, 10 mg/kg", "value": "17.09 and 15.74 and 18.31 and 16.60 and 14.04 and 16.64 (2×) and 16.00"},
      {"measurement": "Body Weight D8", "setting": "[3]", "value": "16.51 and 15.56 and 18.14 and 16.14 and 14.02 and 16.16 and 15.50 and 16.26"},
      {"measurement": "Body Weight D9", "setting": "[3]", "value": "16.61 and 15.20 and 17.85 and 15.85 and 13.92 and 15.86 and 15.31 and 16.41"},
      {"measurement": "Body Weight D10", "setting": "[3]", "value": "16.48 and 15.64 and 18.33 and 16.10 and 13.59 and 15.70 and 15.00 and 15.80"},
      {"measurement": "Body Weight D11", "setting": "[3]", "value": "16.44 and 15.87 and 17.94 and 16.30 and 14.37 and 16.54 and 16.26 and 16.95"},
      {"measurement": "Body Weight D12", "setting": "[3]", "value": "16.63 and 16.40 and 18.54 and 16.96 and 14.74 and 16.69 and 16.23 and 17.34"},
      {"measurement": "Body Weight D13", "setting": "[3]", "value": "17.12 and 16.52 and 18.44 and 16.93 and 14.68 and 16.17 and 16.27 and 16.95"},
      {"measurement": "Body Weight D14", "setting": "[3]", "value": "17.36 and 16.91 and 18.32 and 17.28 and 15.12 and 16.21 and 16.48 and 17.35"},
      {"measurement": "Body Weight D15", "setting": "[3]", "value": "18.01 and 16.93 and 18.51 and 17.31 and 15.47 and 16.86 and 16.66 and 17.96"},
      {"measurement": "MBWC D1-D8", "setting": "IMI + 10 mg/kg, 10 mg/kg", "value": "−2.15 and −1.41 and 0.15 and −0.45 and −0.68 and −2.29 and −1.38 and −1.53"},
      {"measurement": "MBWC D8-D15", "setting": "IMI + 10 mg/kg, 10 mg/kg", "value": "1.50 and 1.37 and 0.37 and 1.17 and 1.45 and 0.70 and 1.16 and 1.70"},
      {"measurement": "PASI Scores", "setting": "D8 (day treatment started)", "value": "7 (2×) and 6 (3×) and 8 (3×)"},
      {"measurement": "PASI Scores", "setting": "D9", "value": "8 (3×) and 9 and 5 (3×) and 6"},
      {"measurement": "PASI Scores", "setting": "D10", "value": "6 (4×) and 5 (2×) and 7 (2×)"},
      {"measurement": "PASI Scores", "setting": "D11", "value": "8 and 6 (4×) and 4 and 7 and 9"},
      {"measurement": "PASI Scores", "setting": "D12", "value": "6 (6×) and 4 and 5"}
    ]}
  ]
}
